Read-outs that look alike come from different tables or passages of the source.
Tests used:
[1] = Ocular tissue concentration of roflumilast after 5 days topical ocular dosing (Example 8, Table 7); assay type: in vivo, Dutch belted rabbits
Procedure: Two unique animal studies were conducted to assess the concentration of roflumilast in various tissues following administration of different concentrations of Example 3. The concentration in various tissues was assessed following five days of administration of the following dosing regimens: (a) 1% w/v roflumilast three times a day (TID); (b) 0.3% w/v roflumilast three times a day (TID); or (c) 0.1% w/v roflumilast two times a day (BID). In one study encompassing (a) and (b), n=6 Dutch belted rabbits per dose arm were dosed topically three times per day according to arm on days 1 to 4, and on day 5, a single dose was given at hour 0. In a different study with the same methodologies and practices, n=21 Dutch belted rabbits represented in group (c) were dosed two times per day on days 1 to 4, and on day 5, a single dose was given at hour 0. […] In the original study conducted solely with arm (c), a dose curve was created using time points at 0.5, 2, 4, 8, and 24 hours. To reduce the number of animals in the second experiment, for group (a) and (b), only 0.5 and 8 hours were tested. FIG. 1 provides data for the concentration of roflumilast (ng/g) in the iris ciliary body (ICB) as a function of time following: (a) 1% w/v roflumilast administered three times a day; (b) 0.3% w/v roflumilast administered three times a day; or (c) 0.1% w/v roflumilast administered two times a day. FIG. 2 provides data for the concentration of roflumilast (ng/g) in the aqueous humor (AH) as a function of time following: (a) 1% w/v roflumilast administered three times a day; (b) 0.3% w/v roflumilast administered three times a day; or (c) 0.1% w/v roflumilast administered two times a day. FIG. 3 provides data for the concentration of roflumilast (ng/g) in the retina/choroid/retina pigment epithelium (RPE) as a function of time following: (a) 1% w/v roflumilast administered three times a day; (b) 0.3% w/v roflumilast administered three times a day; or (c) 0.1% w/v roflumilast administered two times a day. […] (Claveau, 2004) This ratio is shown at both 0.5 hours, closest to a Cmax time point, and 8 hrs, which would be a time point close to a redosing time point for a TID dosing.

[2] = Ocular pigment binding, equilibrium sepia melanin association (Covance, method by Koeberle et al.); assay type: in vitro ADME
[3] = Saturation concentration of roflumilast in the suspension formulation; assay type: physicochemical; details: formulation characteristic used in the simulation
Procedure: Computational modeling of topical ophthalmic roflumilast dosing was carried out using an ocular simulation computer program based on Matlab® (Mathworks, Natick, MA) programming language using a runtime Java® applet for a graphical user-friendly interface. Physiological and anatomic parameters for the ocular simulation were customized to model the pigmented rabbit eye, by entering appropriate volumes of distribution and surface areas of anterior and posterior compartment tissues. […] Based on these parameters, theoretical calculations were carried out for all simulations, while for matching concentrations with actual experimental data the model was used for comparison, fitting, and optimization.

[4] = dog, in vivo
From the text: (§1) In the study, male and female dogs (n=3M/3F per arm to week 13, 2M/2F to additional 4 week recovery) received 13 weeks of topical treatment, three times a day, followed by a four week recovery period, in four dose arms, 0%, 0.1%, 0.3%, and 1% concentration of roflumilast. In addition to regular safety and well-being checks, animals were given regular ophthalmic exams, measurement of weight, tonometry to test intraocular pressure, pachymetery to test corneal thickness, clinical chemistry and hematological evaluation, and other routine checks of health and well-being. At the point of study termination, ocular tissues and major organs were tested for macro- and microscopic observation.

[5] = rabbit, in vivo
Procedure: (§2) A study was conducted to evaluate toxicity outcomes of repeated topical ocular administration of roflumilast. Male and female New Zealand white rabbits (n=7 per group) were administered: (a) vehicle-based placebo three times a day; (b) a 0.1% w/v roflumilast formulation (Example 3) three times a day; (c) a 0.3% w/v roflumilast formulation (Example 3) three times a day; or (d) a 1.0% w/v roflumilast formulation (Example 3) three times a day. In the study, male and female New Zealand White rabbits received 13 weeks of topical treatment, three times a day, followed by a four-week recovery period, in four dose arms, 0%, 0.1%, 0.3%, and 1% concentration of roflumilast. In addition to regular safety and well-being checks, animals were given regular ophthalmic exams, measurement of weight, tonometry to test intraocular pressure, clinical chemistry and hematological evaluation, and other routine checks of health and well being. At the point of study termination, ocular tissues and major organs were tested for macro- and microscopic observation. […] Parameters evaluated included body weight, intraocular pressure (IOP), and central corneal thickness (CCT).

PDE4 A, B, D = details: also printed as 0.07 ng/g; cited from earlier work
[6] = 13-week repeated topical ocular administration study in dogs (Example 10)
From the text: as §1

[7] = 13-week repeated topical ocular administration toxicity study in rabbits (Example 11); details: for intraocular pressure: FIG. 15
Procedure: as §2

O=C(Nc1c(Cl)cncc1Cl)c1ccc(OC(F)F)c(OCC2CC2)c1 [Roflumilast, N-(3,5-dichloropyrid-4-yl)-3-cyclopropylmethoxy-4-difluoromethoxybenzamide]
Ratio of Roflumilast Concentration to PDE4 IC50 ([1]; AH, 0.10% BID days 1-4, single dose day 5, 0.5 hrs post dose): 53×
Ratio of Roflumilast Concentration to PDE4 IC50 ([1]; AH, 0.10% BID days 1-4, single dose day 5, 8 hrs post dose): 0×
Ratio of Roflumilast Concentration to PDE4 IC50 ([1]; AH, 0.30% TID days 1-4, single dose day 5, 0.5 hrs post dose): 143×
Ratio of Roflumilast Concentration to PDE4 IC50 ([1]; AH, 0.30% TID days 1-4, single dose day 5, 8 hrs post dose): 4×
Ratio of Roflumilast Concentration to PDE4 IC50 ([1]; AH, 1.00% TID days 1-4, single dose day 5, 0.5 hrs post dose): 476×
Ratio of Roflumilast Concentration to PDE4 IC50 ([1]; AH, 1.00% TID days 1-4, single dose day 5, 8 hrs post dose): 10×
Ratio of Roflumilast Concentration to PDE4 IC50 ([1]; Cornea, 0.10% BID days 1-4, single dose day 5, 0.5 hrs post dose): 2286×
Ratio of Roflumilast Concentration to PDE4 IC50 ([1]; Cornea, 0.10% BID days 1-4, single dose day 5, 8 hrs post dose): 509×
tissue levels relative to the IC50 level ([1]; ICB, AH, and retina/choroid/RPE, 0.3% and 1% TID): strong elevation in tissue levels above the IC50 level
Ratio of Roflumilast Concentration to PDE4 IC50 ([1]; ICB, 0.10% BID days 1-4, single dose day 5, 0.5 hrs post dose): 66×
Ratio of Roflumilast Concentration to PDE4 IC50 ([1]; ICB, 0.10% BID days 1-4, single dose day 5, 8 hrs post dose): 2×
Ratio of Roflumilast Concentration to PDE4 IC50 ([1]; ICB, 0.30% TID days 1-4, single dose day 5, 0.5 hrs post dose): 247×
Ratio of Roflumilast Concentration to PDE4 IC50 ([1]; ICB, 0.30% TID days 1-4, single dose day 5, 8 hrs post dose): 9×
Ratio of Roflumilast Concentration to PDE4 IC50 ([1]; ICB, 1.00% TID days 1-4, single dose day 5, 0.5 hrs post dose): 534×
Ratio of Roflumilast Concentration to PDE4 IC50 ([1]; ICB, 1.00% TID days 1-4, single dose day 5, 8 hrs post dose): 22×
Ratio of Roflumilast Concentration to PDE4 IC50 ([1]; RET/CHOR, 0.10% BID days 1-4, single dose day 5, 0.5 hrs post dose): 15×
Ratio of Roflumilast Concentration to PDE4 IC50 ([1]; RET/CHOR, 0.10% BID days 1-4, single dose day 5, 8 hrs post dose): 5×
Ratio of Roflumilast Concentration to PDE4 IC50 ([1]; RET/CHOR, 0.30% TID days 1-4, single dose day 5, 0.5 hrs post dose): 91×
Ratio of Roflumilast Concentration to PDE4 IC50 ([1]; RET/CHOR, 0.30% TID days 1-4, single dose day 5, 8 hrs post dose): 14×
Ratio of Roflumilast Concentration to PDE4 IC50 ([1]; RET/CHOR, 1.00% TID days 1-4, single dose day 5, 0.5 hrs post dose): 167×
Ratio of Roflumilast Concentration to PDE4 IC50 ([1]; RET/CHOR, 1.00% TID days 1-4, single dose day 5, 8 hrs post dose): 52×
duration of terminal level therapeutic concentrations covering the relevant IC50 ([1]; cornea, 0.1% BID four days plus single dose day 5, FIG. 5): ~24 h
ocular pigment binding [2]: medium to high
saturation concentration [3]: 6 µg/mL
tolerability [4]: well tolerated at all concentrations
tolerability [5]: well tolerated at all concentrations
IC50 of t-cells for the PDE4 A, B, D targets (PDE4 A, B, D): 0.07 ng/mL
major clinical or pathological findings in life or post-mortem ([6]; 0.1%, 0.3%, 1% TID topical ocular, 13 weeks plus 4 week recovery): no major test article related findings
systemic adverse effect on the eye or other organs (ophthalmic and other exams) ([6]; 0.1%, 0.3%, 1.0% w/v TID): little to no systemic adverse effect
body weight ([6]; all concentrations TID, compared to vehicle-based placebo, FIG. 11): did not lose weight
central corneal thickness ([6]; all treatment groups over the duration of the study, FIG. 13): substantially consistent for all treatment groups
intraocular pressure ([6]; all treatment groups, only transient changes seen sporadically, FIG. 12): substantially the same for all treatment groups
major clinical or pathological findings in life or post-mortem ([7]; New Zealand White rabbits, 0.1%, 0.3%, 1% TID topical ocular, 13 weeks plus four-week recovery): no major test article related findings
intraocular pressure ([7]; rabbits, 0.1% w/v TID, day 28, only transiently, still within a normal range): higher
systemic adverse effect on the eye or other organs (ophthalmic and other exams) ([7]; rabbits, 0.1%, 0.3%, 1.0% w/v TID): little to no systemic adverse effect
body weight ([7]; rabbits, all concentrations TID, compared to vehicle-based placebo, FIG. 14): did not lose weight
central corneal thickness ([7]; rabbits, all treatment groups, FIG. 16): substantially the same for all treatment groups
intraocular pressure ([7]; rabbits, all treatment groups, remaining days): substantially the same for all treatment groups

Reference: patent US20250032468A1, “OCULAR SURFACE TOPICAL ADMINISTRATION OF ROFLUMILAST FOR TREATMENT OF ANTERIOR AND RETINAL-VITREOUS CHAMBER OCULAR DISEASES” (IOLYX THERAPEUTICS, INC., priority 2023, published 2025)
